Test system: caspase-9
Experiment: RT-PCR for caspase-9 mRNA expression in P5 cells
Type: cell-based, human
Settings: cisplatin 2 µg/ml, 6 and 24 h, Fig. 4a
Description: P5 cells either untreated (CO) or stimulated with cisplatin (CIS, 2 µg/ml) were incubated in the absence or presence of DEX (1 µM). • (a) 6 and 24 h later RNA was extracted and assayed by RT-PCR for expression of caspase-9. Expression of the GAPDH gene served as control for equal conditions. • (b) 24 h after stimulation expression of caspase-9 proteins was examined by immunofluorescence staining using a rabbit polyclonal caspase-9 antibody and a FITC-coupled secondary antibody. Staining with the secondary antibody alone served as control for unspecific binding. • (c) 48 and 72 h after treatment whole cell proteins were extracted and analysed for expression of caspase-9 and caspase-3. The protein sizes in kDa are indicated on the right. […]
• (A) Cell culture. […] The mice were given 0.28 mg/L DEX in drinking water, and the amount of water consumed was monitored. […] The tumour volumes were measured using callipers, and calculated using, as an approximation, the formula for volume of a hemi-ellipsoid: π(width^2 x length)/6. […] Early apoptotic changes were identified by staining of cells with fluoresceinthiocyanate (FITC)-conjugated annexin V and propidium iodide (Becton Dickinson, Heidelberg, Germany) and analysed by flow cytometry (FACScan, Becton Dickinson) as described (Herr et al., EMBO J. 16 (1997), 6200-6208) • (E) Immunohistochemistry. […]

N.N.[Cl][Pt][Cl] [cisplatin]
caspase-9 mRNA expression: strongly enhanced

— patent EP1283052A1, “Pharmaceutical composition containing caspase-8 and /or caspase-9 useful for overcoming glucocorticoid- and cancer therapy-induced apoptosis of tumours” (Deutsches Krebsforschungszentrum Stiftung des öffentlichen …, priority 2001, dated 2003)
